Some test systems named below: COLO 205; HOP-62; ACHN; M14; SK-MEL-2; SF-268; A498; TK-10; SN12C; NCI-H23; NCI-H522; SNB-75; OVCAR-8; A549; HCC 2998; NCI-H226; SNB-19; 786-0; UO-31; HCT-15.
Common to all, as to experiment: NCI-60 cell line screen, 48 h

The values that follow come from ChEMBL document CHEMBL1201862, “PubChem BioAssay data set” (2004).

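Grown in 96-well plates, cells were treated for 48 hours with each compound at five concentrations. Insufficient inhibition: endpoint recorded as highest concentration tested. The concentration for 50% growth inhibition is given as GI50.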 Calls of active or inactive are those of the source. Cut-off read from the data, not from the text of the source: active = GI50 up to about 1.1 µM and inactive = higher. Starred links: 1 amine or outer side, 2 acyl side, 3 side chain; linkers in the order of their positions; H or OH if unused. Positions of bridges follow the written chain, without caps; N, C: chain ends. Non-standard residues stand in square brackets, D forms with d. Residues, ends and D or L forms follow the SMILES beside them. ξ: configuration not given here. X11 = CCC(C)C(N[*:1])C(O)CC(=O)O[C@H](C(=O)C(C)C(=O)[*:2])C(C)C; X10 = O=C([C@@H]1CC(O)CN1[*:1])[*:2]; NMeY = CN[C@@H](Cc1ccc(O)cc1)C(=O)O; ξNMeL = CNC(CC(C)C)C(=O)O; ξT = CC(O)C(N)C(=O)O

Take `CN(CCN(C)CCN(C)C(=O)Cc1ccc(Cl)c(Cl)c1)CCN1CCCC1`: the GI50 in the test on COLO 205 is 16.3 µM (inactive); with HOP-62, 25.4 µM (inactive); in the test on ACHN, 45.9 µM (inactive); in the test on M14 it was 25.9 µM (inactive); with SK-MEL-2 it was 16 µM (inactive); in the test with SF-268 it was 41.2 µM (inactive). In addition, the GI50 was 16.4 µM (inactive) in the test with A498; 26.1 µM (inactive) in the test on TK-10; 39 µM (inactive) with SN12C; 30.5 µM (inactive) in the test with NCI-H23; 20.6 µM (inactive) with NCI-H522; 28 µM (inactive) in the test with SNB-75. The GI50 in the test with OVCAR-8 is 34.9 µM (inactive); in the test with A549, 37 µM (inactive); with HCC 2998, 11.7 µM (inactive); in the test with NCI-H226 it was 30.5 µM (inactive); in the test on SNB-19 it was 39 µM (inactive); in the test on 786-0 it was 19.5 µM (inactive). In addition, the GI50 with UO-31 was 1.92 µM (inactive); with HCT-15 it was 37.3 µM.

`CN(COC(=O)C(C)(C)C)c1nc(N(C)COC(=O)C(C)(C)C)nc(N(C)COC(=O)C(C)(C)C)n1`: the GI50 was 16 µM (inactive) in the test with COLO 205; > 100 µM (inactive) in the test on HOP-62; 32.3 µM (inactive) in the test on ACHN; 19 µM (inactive) with M14; 61.1 µM (inactive) in the test on SK-MEL-2; 34.8 µM (inactive) with SF-268. Besides, the GI50 is > 100 µM (inactive) in the test on A498; > 100 µM (inactive) in the test with TK-10; > 100 µM (inactive) in the test with SN12C; > 100 µM (inactive) in the test with NCI-H23; 77.1 µM (inactive) in the test with NCI-H522; 50.2 µM (inactive) in the test with SNB-75. For the same compound, the GI50 in the test with OVCAR-8 is > 10 µM (inactive); with A549, < 0.01 µM (active); with HCC 2998 it was 34.3 µM (inactive); with NCI-H226 it was > 100 µM (inactive); with SNB-19 it was > 100 µM (inactive); in the test on 786-0 it was 28.6 µM (inactive). The results for the GI50 in the test on UO-31 and in the test on HCT-15 were > 100 µM (inactive) and 21 µM, respectively.

On to `CC#C[C@@]1(O)CCCC[C@@H]1O`, for which the GI50 in the test on COLO 205, with HOP-62, with ACHN, with M14, in the test on SK-MEL-2 and in the test on SF-268 was > 100 µM (inactive) each time. For the same compound, the GI50 with A498, in the test with TK-10, in the test on SN12C, in the test with NCI-H23, in the test with NCI-H522 and with SNB-75 was > 100 µM (inactive) each time. Moreover, the GI50 in the test on OVCAR-8, in the test with A549, in the test on HCC 2998, with NCI-H226, in the test with SNB-19 and in the test on 786-0 was > 100 µM (inactive) throughout. Moreover, the GI50 with UO-31 is > 100 µM (inactive); in the test with HCT-15, greater than 100 µM.

As to `CN(/N=C/c1cccc2cccnc12)c1ccc([N+](=O)[O-])cc1[N+](=O)[O-]`, the GI50 in the test on COLO 205 is 86.3 µM (inactive); in the test with HOP-62, 8.61 µM (inactive); in the test on ACHN it was 22 µM (inactive); in the test on M14, 54.7 µM (inactive); in the test on SK-MEL-2, 14.9 µM (inactive); in the test with SF-268, 18.5 µM (inactive). For the same compound, the GI50 in the test on A498 was 17.4 µM (inactive); in the test with TK-10 it was 29 µM (inactive); in the test on SN12C, 46.1 µM (inactive); in the test with NCI-H23, 24.5 µM (inactive); with NCI-H522, 16.4 µM (inactive); in the test with SNB-75, 10.1 µM (inactive). Further, the GI50 with OVCAR-8 was 32.7 µM (inactive); in the test with A549 it was 48.5 µM (inactive); in the test with HCC 2998 it was 71 µM (inactive); in the test on NCI-H226, 24 µM (inactive); in the test on SNB-19 it was 11.3 µM (inactive); in the test with 786-0 it was 13.3 µM (inactive). The results for the GI50 with UO-31 and in the test with HCT-15 were 37.3 µM (inactive) and 63 µM, respectively.

`Fc1cccc(CSc2ncnc3c2ncn3C2CCCS2)c1` (stereo not given): the GI50 in the test with COLO 205 was 10.2 µM (inactive); with HOP-62, 17.6 µM (inactive); with ACHN, 16.9 µM (inactive); in the test with M14 it was 18.1 µM (inactive); in the test on SK-MEL-2, 19.6 µM (inactive); in the test with SF-268 it was 14.8 µM (inactive). Further, the GI50 is 17.3 µM (inactive) in the test with A498; 30.6 µM (inactive) in the test with TK-10; 25.8 µM (inactive) with SN12C; 23.9 µM (inactive) in the test on NCI-H23; 15.1 µM (inactive) with NCI-H522; 17.6 µM (inactive) in the test with SNB-75. Further, the GI50 in the test with OVCAR-8 is 20.8 µM (inactive); in the test with A549, 20.1 µM (inactive); in the test with HCC 2998, 21.9 µM (inactive); in the test with NCI-H226, 29.2 µM (inactive); in the test on SNB-19, 36.2 µM (inactive); in the test on 786-0 it was 20.7 µM (inactive). In addition, the GI50 with UO-31 was 12.1 µM (inactive); in the test on HCT-15, 8.51 µM.

Regarding `CCC(C)C1NC(=O)C(NC(=O)C(CC(C)C)N(C)C(=O)[C@@H]2CC(O)CN2)C(C)OC(=O)[C@H](Cc2ccc(OC)cc2)N(C)C(=O)[C@@H]2CCCN2C(=O)[C@H](CC(C)C)NC(=O)C(C)C(=O)[C@H](C(C)C)OC(=O)CC1O` (stereo not given in full) (H-[X10][ξNMeL][ξT][X11]LP[NMeY](Me); ester 3-C), the GI50 in the test on COLO 205 is 0.00309 µM (active); with HOP-62, 0.00931 µM (active); with ACHN, 0.0382 µM (active); in the test with M14 it was 0.00419 µM (active); in the test on SK-MEL-2 it was 0.00399 µM (active); in the test with SF-268, 0.011 µM (active). For the same compound, the GI50 in the test with A498 was 0.0548 µM (active); with TK-10, 0.164 µM (active); with SN12C, 0.00951 µM (active); with NCI-H23, 0.01 µM (active); in the test with NCI-H522, 0.00488 µM (active); with SNB-75, 0.0106 µM (active). Moreover, the GI50 is 0.0384 µM (active) with OVCAR-8; 0.0228 µM (active) in the test with A549; 0.00469 µM (active) in the test on HCC 2998; 0.00182 µM (active) in the test with NCI-H226; 0.00819 µM (active) with SNB-19; 0.0121 µM (active) in the test with 786-0. The figures for the GI50 in the test on UO-31 and in the test with HCT-15 were 0.233 µM (active) and 0.472 µM, respectively.

Take `C[C@]12CC[C@H](O[C@@H]3O[C@H](CO[C@@H]4O[C@H](CO)[C@@H](O)[C@H](O)[C@H]4O)[C@@H](O)[C@H](O)[C@H]3O)C[C@@H]1CC[C@@H]1[C@@H]2CC[C@]2(C)[C@@H](C3=CC(=O)OC3)CC[C@]12O` [UZARIN]: the GI50 in the test with COLO 205 was 50.1 µM (inactive); in the test with HOP-62, 13.7 µM (inactive); in the test with ACHN, 8.57 µM (inactive); in the test on M14 it was 24.8 µM (inactive); in the test with SK-MEL-2, 36.4 µM (inactive); in the test with SF-268 it was 11 µM (inactive). The GI50 is 24.9 µM (inactive) in the test with A498; 18.8 µM (inactive) in the test with TK-10; 20.1 µM (inactive) with SN12C; 11.1 µM (inactive) with NCI-H23; 7.91 µM (inactive) in the test with NCI-H522; 28.4 µM (inactive) with SNB-75. The GI50 in the test with OVCAR-8 was 31.8 µM (inactive); in the test on A549, 5.33 µM (inactive); with HCC 2998, 21.9 µM (inactive); in the test on NCI-H226, 42.2 µM (inactive); in the test with SNB-19, 38.9 µM (inactive); in the test on 786-0 it was 43.6 µM (inactive). For the same compound, the figures for the GI50 in the test with UO-31 and in the test on HCT-15 were 25.1 µM (inactive) and 18.2 µM, respectively.
